Measurements taken from patent US9499486B2, “Kinase inhibitor” (RESPIVERT LIMITED, priority 2014, dated 2016).
Several values for one entry are separate records, joined by “and”; a condition that tells them apart may be missing. Identical values can stand only once. Counter-ions that a name gives are not always drawn. Like-named read-outs stand apart in the source and are kept apart here.

Assays:
[1] = test system: Jurkat cells; experiment: Cell cytotoxicity assay (assay r); type: cell-based, human; settings: 24 hours
Experimental: 1×10^5 Jurkat cells (immortalised human T lymphocytes) are added to the appropriate number of wells of a 96 well plate in 100 μL of media (RPMI supplemented with 10% foetal bovine serum). 1 μL of DMSO control (final concentration 1.0% v/v) or test compound (final concentration 20, 5 or 1 μg/mL) is added to the wells and incubated at 37° C., 5% CO2. After 24 hours, the plate is centrifuged at 1200 rpm for 3 minutes and the supernatant discarded. Cells are then resuspended in 150 μL (final concentration 7.5 μg/mL) of propidium iodide (PI) in PBS and incubated at 37° C., 5% CO2 for 15 minutes. After 15 minutes, cells are analysed by flow cytometry (BD accuri) using the FL3 window. The % viability is calculated as the % of cells that are PI negative in the test wells normalised to the DMSO control.

[2] = test system: non-mutant kinases; type: binding; settings: for number of individual kinase hits, S(1): % Ctrl <1; for number of individual kinase hits, S(10): % Ctrl <10; for number of individual kinase hits, S(35): % Ctrl <35
Text: These assays may be conducted by DiscoverX (formerly Ambit; San Diego, Calif.).

[3] = Solubility in fasted-state simulated colonic fluid (FaSSCoF); type: physicochemical; settings: pH 6.5, 25° C., 24 h; for solubility thermodynamic at 24 h: fasted-state simulated colonic fluid (FaSSCoF), 25 °C, pH 6.5, fassgf or other biorelevant, thermodynamic from solid
Experimental: The solubility of the compound of the invention in FaSSCoF at pH 6.5 is determined using a modification of a previously-reported procedure (Vertzoni, M., et al. Pharm. Res. 2010, 27, 2187-2196). In place of the bile salt extract employed in the original procedure (which extract is no longer available), the modified procedure uses a mixture of sodium taurochlorate (0.15 g), glycocholic acid (0.15 g), ursodeoxycholic acid (0.05 g), cholic acid (0.05 g), and glycodeoxycholic acid (0.05 g). These five bile acids are ground together with a mortar and pestle to produce a fine white powder that is incorporated into the FaSSCoF, as outlined below.
FaSSCoF medium: Tris(hydroxymethyl)aminomethane (Tris; 0.275 g) and maleic acid (0.44 g) are dissolved in water (35 mL) to give a solution whose pH is adjusted to 6.5 by treatment with 0.5M NaOH (ca. 12 mL). The solution is then made up to 50 mL with water. A portion of this Tris/maleate buffer solution (ca. 25 mL) is added to a 0.5 L round-bottomed flask, before being treated with 0.00565 g of the bile acid mixture described above. Solutions of phosphatidylcholine (0.0111 g) in DCM (0.15 mL) and palmitic acid (0.0013 g) in DCM (0.15 mL) are added, then the organic solvent is evaporated off under reduced pressure at 40° C. until a clear solution, with no perceptible DCM odour, is achieved. The volume of the evaporated solution is adjusted to 50 mL by addition of the remainder of Tris/maleate buffer, then BSA (0.115 g) is added, before being dissolved by gentle agitation.
Solubility Determination: Test compounds are suspended in the pH 6.5 FaSSCoF medium to give a maximum final concentration of 2-10 mg/mL. The suspensions are equilibrated at 25° C. for 24 h, before being filtered through a glass fibre C filter. The filtrates are then diluted as appropriate for injection and quantification by HPLC with reference to a standard. Different volumes of the standard, diluted and undiluted sample solutions are injected and the solubilities are calculated using the peak areas determined by integration of the peak found at the same retention time as the principal peak in the standard injection.

[4] = Stability of pharmaceutical formulations (1 mg/mL solutions); type: physicochemical; settings: for Original Purity: 1 mg/mL in pH 7.2 phosphate buffer, 4.5% mannitol, 3% polyoxyl 40 stearate, before storage; for Osmolality / pH: 1 mg/mL stock solution; for Purity at week n = 1 / Purity at week n = 2 / Purity at week n = 4: 1 mg/mL solution
Experimental: The samples were sonicated to achieve clear solutions having the following properties: Osmolality (mOsm/kg): 310 (Na), 314 (HCl); pH: 7.00 (Na), 7.05 (HCl). 0.5 mL of the stock solutions were diluted to 1 mL with 20% DMSO in water & injected for purity analysis by HPLC. The remaining stock solutions were then split into aliquots of 0.5 mL in HPLC vials, and stored at various conditions in duplicate. Samples were stored at 5 and 25° C., before being analysed by HPLC at 1, 2 and 4 weeks. Separate samples were stored at 40° C. and analysed at 4 weeks.

[5] = Systemic pharmacokinetics and total colon tissue distribution after single oral administration; type: in vivo, mouse; settings: male, C57BL/6, mouse, mice, oral 5 mg/kg, compound 1 measured
Experimental: Studies were conducted by Sai Life Sciences (Hinjewadi, Pune, India) to investigate the systemic pharmacokinetics and total colon tissue distribution of the compound of the invention. In particular, pharmacokinetic studies were carried out in male C57BL/6 mice following a single oral administration of the compound.

[6] = read-out: pH 6.5 FaSSCoF Solubility Run 1
[7] = listed as Example 1, hydrochloride salt
[8] = stored at 5 ° C., listed as Example 1, hydrochloride salt
[9] = stored at 25 ° C., listed as Example 1, hydrochloride salt
[10] = listed as Example 1, sodium salt
[11] = stored at 5 ° C., listed as Example 1, sodium salt
[12] = stored at 25 ° C., listed as Example 1, sodium salt
[13] = plasma, read-out: Mean plasma concentration
[14] = total colon, read-out: Mean total colon level

**Q.** With `COCC(=O)Nc1cc(Oc2ccc(NC(=O)Nc3cc(C(C)(C)C)nn3-c3ccc(C)cc3)c3ccccc23)ccn1` [Reference Compound, reference compound] as the compound, how does the “% Viability at 1 μg/mL” value ([1]; 1 μg/mL) read?
**A.** Its value is 23.5%.

**Q.** And the “% Viability at 5 μg/mL” value ([1]; 5 μg/mL)?
**A.** Its value is 18.9%.

**Q.** And the “% Viability at 20 μg/mL” value ([1]; 20 μg/mL)?
**A.** The value was 17.3%.

**Q.** What about the “number of individual kinase hits, S(1)” value ([2]; 50 nM) of the same compound?
**A.** The value was 7.

**Q.** And the “number of individual kinase hits, S(10)” value ([2]; 50 nM)?
**A.** Its value is 32.

**Q.** And the “number of individual kinase hits, S(35)” value ([2]; 50 nM)?
**A.** The value was 67.

**Q.** What about the “number of individual kinase hits, S(1)” value ([2]; 500 nM) of the same compound?
**A.** Its value is 45.

**Q.** What about the “number of individual kinase hits, S(10)” value ([2]; 500 nM) of the same compound?
**A.** The value was 105.

**Q.** What about the “number of individual kinase hits, S(35)” value ([2]; 500 nM) of the same compound?
**A.** Its value is 143.

**Q.** Which solubility thermodynamic at 24 h [3, 6] does the source give for `COc1cc(Nc2cc(Oc3ccc(NC(=O)Nc4cc(C(C)(C)C)cc(NS(C)(=O)=O)c4OC)c4ccccc34)ccn2)ccc1C(=O)O` [1 (hydrochloride salt), 4-((4-((4-(3-(5-(tert-Butyl)-2-methoxy-3-(methylsulfonamido)phenyl)ureido)naphthalen-1-yl)oxy)pyridin-2-yl)amino)-2-methoxybenzoic acid] here?
**A.** The solubility thermodynamic at 24 h was 16 µg/mL.

**Q.** And the “pH 6.5 FaSSCoF Solubility Run 2” value [3]?
**A.** Its value is 0.015 mg/mL.

**Q.** What about the “Original Purity” value [4, 7] of the same compound?
**A.** Its value is 98.1%.

**Q.** And the Osmolality [4, 7]?
**A.** The Osmolality was 314 mOsm/kg.

**Q.** And the pH [4, 7]?
**A.** The pH was 7.05.

**Q.** What about the “Purity at week n = 1” value [4, 8] of the same compound?
**A.** The value was 98.2%.

**Q.** And the “Purity at week n = 2” value [4, 8]?
**A.** The value was 98.1% and 98.0%.

**Q.** And the “Purity at week n = 4” value [4, 8]?
**A.** The value was 97.9% and 98.0%.

**Q.** What about the “Purity at week n = 1” value [4, 9] of the same compound?
**A.** The value was 98.0%.

**Q.** What about the “Purity at week n = 2” value [4, 9] of the same compound?
**A.** The value was 97.7% and 97.6%.

**Q.** And the “Purity at week n = 4” value [4, 9]?
**A.** The value was 97.2% and 97.4%.

**Q.** And the “Purity at week n = 4” value ([4]; stored at 40 ° C., listed as Example 1, hydrochloride salt)?
**A.** Its value is 79.2% and 80.4%.

**Q.** Which solubility thermodynamic at 24 h [3, 6] does the source give for `C#Cc1cc(Nc2nccc(Oc3ccc(NC(=O)Nc4cc(C(C)(C)C)nn4-c4ccc(C)cc4)c4ccccc34)n2)cc(C(=O)NCCOCCOCCOC)c1` [Reference Compound A, 3-((4-((4-(3-(3-(tert-butyl)-1-(p-tolyl)-1H-pyrazol-5-yl)ureido)naphthalen-1-yl)oxy)pyrimidin-2-yl)amino)-5-ethynyl-N-(2-(2-(2-methoxyethoxy)ethoxy)ethyl)benzamide, reference compound] here?
**A.** The solubility thermodynamic at 24 h was less than 1 µg/mL.

**Q.** What about the solubility thermodynamic at 24 h ([3]; read-out: pH 6.5 FaSSCoF Solubility Run 2) of the same compound?
**A.** Its solubility thermodynamic at 24 h is less than 1 µg/mL.

**Q.** Which solubility thermodynamic at 24 h [3, 6] does the source give for `COc1cc(Nc2cc(Oc3ccc(NC(=O)Nc4cc(C(C)(C)C)cc(NS(C)(=O)=O)c4OC)c4ccccc34)ccn2)ccc1C(=O)O` [1 (sodium salt), 4-((4-((4-(3-(5-(tert-Butyl)-2-methoxy-3-(methylsulfonamido)phenyl)ureido)naphthalen-1-yl)oxy)pyridin-2-yl)amino)-2-methoxybenzoic acid] here?
**A.** Its solubility thermodynamic at 24 h is 31 µg/mL.

**Q.** What about the “pH 6.5 FaSSCoF Solubility Run 2” value [3] of the same compound?
**A.** Its value is 0.032 mg/mL.

**Q.** What about the “pH 6.5 FaSSCoF Solubility Run 3” value [3] of the same compound?
**A.** The value was 0.020 mg/mL.

**Q.** And the “pH 6.5 FaSSCoF Solubility Run 4” value [3]?
**A.** The value was 0.025 mg/mL.

**Q.** What about the “Original Purity” value [4, 10] of the same compound?
**A.** The value was 98.6% and 98.5%.

**Q.** And the Osmolality [4, 10]?
**A.** Its Osmolality is 310 mOsm/kg.

**Q.** What about the pH [4, 10] of the same compound?
**A.** Its pH is 7.00.

**Q.** And the “Purity at week n = 1” value [4, 11]?
**A.** The value was 98.2% and 98.4%.

**Q.** And the “Purity at week n = 2” value [4, 11]?
**A.** Its value is 98.4% and 98.5%.

**Q.** And the “Purity at week n = 4” value [4, 11]?
**A.** The value was 98.3% and 98.4%.

**Q.** And the “Purity at week n = 1” value [4, 12]?
**A.** The value was 98.4% and 98.5%.

**Q.** What about the “Purity at week n = 2” value [4, 12] of the same compound?
**A.** Its value is 98.1%.

**Q.** What about the “Purity at week n = 4” value [4, 12] of the same compound?
**A.** The value was 97.6%.

**Q.** What about the “Purity at week n = 4” value ([4]; stored at 40 ° C., listed as Example 1, sodium salt) of the same compound?
**A.** Its value is 76.0% and 73.7%.

**Q.** What about the concentration at 0.5 h [5, 13] of the same compound?
**A.** The concentration at 0.5 h was 44.9 ng/mL.

**Q.** What about the concentration at 1 h [5, 13] of the same compound?
**A.** Its concentration at 1 h is 49.2 ng/mL.

**Q.** What about the concentration at 2 h [5, 13] of the same compound?
**A.** The concentration at 2 h was 13 ng/mL.

**Q.** What about the concentration at 4 h [5, 13] of the same compound?
**A.** The concentration at 4 h was 5.2 ng/mL.

**Q.** And the concentration at 6 h [5, 13]?
**A.** Its concentration at 6 h is 1.9 ng/mL.

**Q.** And the concentration at 8 h [5, 13]?
**A.** Its concentration at 8 h is 0.6 ng/mL.

**Q.** And the concentration at 12 h [5, 13]?
**A.** The concentration at 12 h was 5.3 ng/mL.

**Q.** What about the concentration at 24 h [5, 13] of the same compound?
**A.** The concentration at 24 h was 0 ng/mL.

**Q.** And the concentration at 0.5 h [5, 14]?
**A.** The concentration at 0.5 h was 4.3 ng/g.

**Q.** What about the concentration at 1 h [5, 14] of the same compound?
**A.** Its concentration at 1 h is 9.3 ng/g.

**Q.** And the concentration at 2 h [5, 14]?
**A.** The concentration at 2 h was 52.4 ng/g.

**Q.** What about the concentration at 4 h [5, 14] of the same compound?
**A.** The concentration at 4 h was 10400 ng/g.

**Q.** And the concentration at 6 h [5, 14]?
**A.** Its concentration at 6 h is 4050 ng/g.

**Q.** And the concentration at 8 h [5, 14]?
**A.** The concentration at 8 h was 12900 ng/g.

**Q.** What about the concentration at 12 h [5, 14] of the same compound?
**A.** Its concentration at 12 h is 535 ng/g.

**Q.** And the concentration at 24 h [5, 14]?
**A.** Its concentration at 24 h is 41.4 ng/g.
